Data: patent publication US10292393B2, “Mitigation of alternate bearing” (The Regents of the University of California, priority 2009, dated 2019)
Marks after values point to notes of the source that are not given here.

Key:
[1] = test system: ‘Fina Sodea’ Clementine mandarin trees
[2] = test system: on-crop ‘Nules’ Clementine mandarin trees; test: Trunk injections, spring bloom of on-crop mandarin trees; format: in vivo; conditions: trunk injection 1 g per tree, counted at spring bloom
Text: This example describes the mitigation of alternate bearing in ‘Nules’ Clementine mandarin trees achieved via trunk injection of adenosine in a composition containing the auxin transport inhibitor TIBA. On-crop ‘Nules’ Clementine mandarin trees received trunk injections of the following compounds listed in Table 1-1: TIBA (2,3,5-triiodobenzoic acid) (Sigma Chemical); 6-BA (6-benzyladenine) (Sigma Chemical); GA3 (PROGIBB® 40%, Valent BioSciences Corp.); and Ado (9-beta-D-adenosine) (Sigma Chemical, Catalog No. A9251) alone or in combination with TIBA. Each material was supplied at the rate of 1 g per tree dissolved in 50-60 ml distilled water using two plastic syringes per tree at each application time. Application times were timed (1) to stimulate summer shoot growth by overcoming correlative inhibition (July) and (2) to overcome inhibition of spring bud break (January). Thus, trees were treated in July alone or in July and January. There was also a treatment in which the apical three nodes of each shoot were removed to release the lateral buds from the dominance of the apical bud to promote summer vegetative shoot growth. The treatments included untreated on-crop control trees and untreated off-crop control trees. The experimental design was a randomized complete block with 5 individual tree replications per treatment with 13 treatments. For each tree, branches (12 inches long), 3 with fruit and 1 branch without fruit in each of the four tree quadrants, were tagged (off-crop control trees were tagged 3 without fruit and 1 with fruit). At the end of September and December, the number and length of new vegetative shoots were quantified to determine the capacity of treatments to overcome inhibition of buds that produce the summer and fall flush shoots, respectively.

[3] = test system: on-crop ‘Hass’ avocado trees; test: Trunk injections, spring bloom and yield of on-crop avocado trees; format: in vivo, ‘Hass’ avocado (Persea americana cv. Hass); conditions: trunk injection 1 g/tree, Jan; for Floral (with fruit): branches with fruit; for Floral (w/o fruit): branches without fruit; for Fruit yield: putative off-crop following the on-crop; for Determinate floral shoots / Floral shoots / Indeterminate floral shoots: spring bloom
Procedure: This example describes the mitigation of alternate bearing in ‘Hass’ avocado trees achieved via trunk injection of adenosine and plant growth regulators. The following treatments were injected (1 g/tree) in mid-January into the trunk of on-crop ‘Hass’ avocado trees in a commercial orchard in Irvine, Calif.: (1) 9-beta-D-adenosine (Sigma Chemical, Catalog No. A9251); (2) 6-BA (Sigma Chemical); (3) GA3 (PROGIBB® 40%, Valent BioSciences Corp.); (4) TIBA (Sigma Chemical); and (5) TIBA plus adenosine. Each material was supplied at the rate of 1 g per tree dissolved in 50-60 ml distilled water using two plastic syringes per tree. There were five individual tree replicates per treatment, including (6) untreated on-crop control trees. For each tree, branches (12 inches long), 1 with fruit and 1 branch without fruit in each of the four tree quadrants, were tagged.

[4] = test system: mandarins; conditions: cited from earlier work
[5] = 3-year cumulative, 25 mg/L in 250 gallons water per acre, once at maximum peel thickness
[6] = 3-year cumulative, jumbo (63.51-69.85 mm)
[7] = 3-year cumulative, large (57.16-63.50 mm)
[8] = 3-year cumulative, mammoth (69.86-76.20 mm)
[9] = 3-year cumulative, medium (50.81-57.15 mm)
[10] = 3-year cumulative, small (44.45-50.80 mm)

| SMILES | Floral on Spring shoots ([2]; Jul + Jan) | Floral on Summer-Fall shoots ([2]; Jul + Jan) | Floral shoots ([2]; Jul + Jan) | Leafless Floral shoots ([2]; Jul + Jan) | Leafy Floral shoots ([2]; Jul + Jan) | Floral on Spring shoots ([2]; July) | Floral on Summer-Fall shoots ([2]; July) | Floral shoots ([2]; July) | Leafless Floral shoots ([2]; July) | Leafy Floral shoots ([2]; July) | Floral (with fruit) [3] | Floral (w/o fruit) [3] | Fruit yield [3] [No. per tree] | Determinate floral shoots [3] | Floral shoots [3] | Indeterminate floral shoots [3] | further results |
| --- | --- | --- | --- | --- | --- | --- | --- | --- | --- | --- | --- | --- | --- | --- | --- | --- | --- |
| Nc1ncnc2c1ncn2[C@@H]1O[C@H](CO)[C@@H](O)[C@H]1O [Ado, 9-beta-D-adenosine] | 5 bc No. of shoots per 100 nodes | 16 No. of shoots per 100 nodes | 12 No. of shoots per 100 nodes | 0 No. of shoots per 100 nodes | 12 No. of shoots per 100 nodes | 2 bc No. of shoots per 100 nodes | 14 No. of shoots per 100 nodes | 10 No. of shoots per 100 nodes | 2 No. of shoots per 100 nodes | 8 No. of shoots per 100 nodes | 8 No. of shoots per 100 nodes | 10 No. of shoots per 100 nodes | 220 | 3 ab No. of shoots per 100 nodes | 10 ab No. of shoots per 100 nodes | 7 No. of shoots per 100 nodes | Quantity of fruit, Total [1, 5]: 1529.3^y fruit no./tree; Yield of fruit, Total [1, 5]: 126.30^y kg/tree; Quantity of fruit, Colossal ([1]; 3-year cumulative, colossal (76.21-82.55 mm)): 5.64 fruit no./tree; Quantity of fruit, Jumbo [1, 6]: 128.25 a fruit no./tree; Yield of fruit, Jumbo [1, 6]: 15.42 a kg/tree; Quantity of fruit, Large [1, 7]: 360.93 a fruit no./tree; Yield of fruit, Large [1, 7]: 34.67 a kg/tree; Quantity of fruit, Mammoth [1, 8]: 22.89 fruit no./tree; Yield of fruit, Mammoth [1, 8]: 3.52 kg/tree; Quantity of fruit, Medium [1, 9]: 497.05 fruit no./tree; Yield of fruit, Medium [1, 9]: 37.00 kg/tree; Yield of fruit, Colossal ([1]; 3-year cumulative, packing carton size colossal (76.21-82.55 mm)): 1.04 kg/tree; Quantity of fruit, Small [1, 10]: 417.12 fruit no./tree; Yield of fruit, Small [1, 10]: 23.58 kg/tree; Quantity of fruit, Ma + J + L ([1]; 3-year cumulative, sum of mammoth, jumbo and large): 512.07 a fruit no./tree; Yield of fruit, Ma + J + L ([1]; 3-year cumulative, sum of mammoth, jumbo and large (57.16-76.20 mm)): 53.60 kg/tree; Effects on mandarin fruit quality ([1]; in vivo): did not have negative effects; Net increase in total yield ([1]; versus control, numerical (non-significant)): 6,799 lbs fruit/200 trees/acre; Net increase in 3-year cumulative yield of commercially valuable large fruit (57.16-76.20 mm in diameter) ([1]; versus control, statistically significant): 4,735 lbs/200 trees/acre |
| C=C1C[C@]23C[C@@]1(O)CC[C@H]2[C@@]12C=C[C@H](O)[C@@](C)(C(=O)O1)[C@H]2[C@@H]3C(=O)O [GA3, gibberellic acid] | 0 c No. of shoots per 100 nodes | 2 No. of shoots per 100 nodes | 1 No. of shoots per 100 nodes | 0 No. of shoots per 100 nodes | 1 No. of shoots per 100 nodes | 0 c No. of shoots per 100 nodes | 4 No. of shoots per 100 nodes | 3 No. of shoots per 100 nodes | 0 No. of shoots per 100 nodes | 3 No. of shoots per 100 nodes | 6 No. of shoots per 100 nodes | 8 No. of shoots per 100 nodes | 194 | 2 b No. of shoots per 100 nodes | 7 b No. of shoots per 100 nodes | 6 No. of shoots per 100 nodes | Effect on total number of fruit per tree ([4]; light crop year (approximately 550 fruit per tree), four applications from 60% bloom, 15 or 25 mg GA3/L): successfully increase the total number of fruit per tree; Effect on total yield and yield of large size fruit ([4]; on-crop years (approximately 1200 fruit per tree)): either reduced both total yield and yield of commercially valuable large size fruit (packing carton sizes large, jumbo and mammoth) or had no effect |
| O=C(O)c1cc(I)cc(I)c1I [TIBA, 2,3,5-triiodobenzoic acid] | 5 bc No. of shoots per 100 nodes | 26 No. of shoots per 100 nodes | 18 No. of shoots per 100 nodes | 3 No. of shoots per 100 nodes | 15 No. of shoots per 100 nodes | 3 bc No. of shoots per 100 nodes | 27 No. of shoots per 100 nodes | 19 No. of shoots per 100 nodes | 5 No. of shoots per 100 nodes | 13 No. of shoots per 100 nodes | 11 No. of shoots per 100 nodes | 8 No. of shoots per 100 nodes | 478 | 1 b No. of shoots per 100 nodes | 9 b No. of shoots per 100 nodes | 8 No. of shoots per 100 nodes | – |
